Where two headings read alike, the source gives them in different places.

The target in this assay is T1, mTOR (Homo sapiens, UniProt P42345).
T1 construct: capturing of endogenously expressed target proteins from cell extracts by a bead-immobilized capturing ligand; endogenous in cells; host or cells: HuT-78 cells (ECACC 88041901), cell lysate
The experiment in a line: mTOR kinobeads competition-binding assay. Conditions: HuT-78 cell lysate. The method, then:
The affinity of test compounds for mTOR was determined in the mTOR kinobeads assay. This is a competition-binding assay based on the capturing of endogenously expressed target proteins from cell extracts by a bead-immobilized capturing ligand in the presence of the test compound.
HuT-78 cells (European Collection of Authenticated Cell Cultures, 88041901) were cultured according to vendor's instructions. Frozen cell pellets were homogenized in 3× pellet volumes lysis buffer (50 mM Tris-HCl, 0.4% (v/v) Igepal-CA630, 5% glycerol, 150 mM NaCl, 1.5 mM MgCl2, 25 mM NaF, 1 mM sodium vanadate, 1 mM DTT, pH 7.5, supplemented with EDTA-free protease inhibitor tablet (Roche)). The sample was dispersed using a Dounce homogenizer, kept rotating for 30 min at 4° C., and centrifuged for 10 min at 20000 gat 4° C. The supernatant was centrifuged again for 1 h at 145 000 g. The protein concentration was determined by Bradford assay (BioRad), aliquots were snap frozen in liquid nitrogen and stored at −80° C.
The capturing matrices were generated by derivatizing N-hydroxysuccinimide (NHS) activated Sepharose 4 beads (GE Healthcare) with the functionalized ligands Compound A and Compound C at a ligand density of 5 mM. Remaining NHS-groups were blocked with ethanolamine.
For the mTOR kinobeads assay the matrices were combined in a 1:1 ratio and equilibrated in DP buffer (50 mM Tris-HCl (pH 7.5), 0.4% (v/v) Igepal-CA630, 5% (v/v) glycerol, 150 mM NaCl, 1.5 mM MgCl2, 25 mM NaF, 1 mM Na3VO4, 1 mM dithiothreitol). All steps of the mTOR kinobeads assay were performed at 4° C. or on ice. The cell lysate was diluted with DP buffer to a final concentration of 5 mg/ml and a final detergent concentration of 0.4% (v/v) Igepal-CA630. For the assay 250 μg cell lysate and 2.5 μl capturing matrix per well (final assay volume: 75 μl) were incubated in the presence of test compounds in a 384-well filter plate (MultiScreenHTS HV Filter Plate, 0.45 μm, MZHVNOW50, Merck Millipore). Each plate contained 16 positive (100 μM Compound B) and 16 negative (2% v/v DMSO) control wells. Compounds were tested in a concentration-response applying 1:3 or 1:4 dilution steps for in total 11 data points. DMSO concentration was 2% (v/v). After 2 h incubation on an overhead shaker (Roto-Shake Genie, Scientific Industries Inc.) at 4° C. the non-bound fraction was removed by washing the beads with DP buffer. Proteins retained on the beads were eluted in SDS sample buffer (200 mM Tris (pH 7.4), 250 mM Trizma Base, 4% (w/v) SDS, 20% (v/v) glycerol, 0.01% (w/v) bromophenol blue, 50 mM dithiothreitol) into a collection plate (384 well polypropylene microplate, V-shape, Greiner, 781 280). Eluates were spotted on nitrocellulose membranes (400 nl per spot) using an automated pin-tool liquid transfer (Biomek FX, Beckman). After drying, the membranes were rehydrated in 20% (v/v) ethanol and blocked by incubation with Odyssey blocking buffer (LICOR, 927-40000) for 1 h at room temperature. Blocked membranes were incubated overnight at 25° C. with Odyssey blocking buffer supplemented with a specific anti-mTOR antibody (Cell Signaling, 2972; 1:500) and 0.4% TWEEN-20. Then the membranes were washed in PBST buffer and incubated for 60 minutes at room temperature with the detection antibody (IRDye™ labelled antibody from LI-COR) diluted in Odyssey blocking buffer (LICOR 927-40000) containing 0.2% TWEEN-20. Then the membranes were washed with PBST and finally rinsed twice with PBS buffer to remove residual Tween-20. The membranes were then scanned with the Odyssey® Infrared Imaging System (LI-COR Biosciences). Fluorescence signals were recorded and analyzed according to the instructions of the manufacturer. Concentration response curves were computed with the software Activity Base. All data were normalized to the mean of 16 high (negative control) and 16 low (positive control) control wells on each plate. […]

Setting [1] is: bead-immobilized capturing ligand, 2 h at 4° C., mean of multiple experiments, read-out: mean pIC50, mTOR kinobeads assay (converted).
[2] abbreviates: selected compounds, mean, read-out: mTOR (mean pIC50 values when tested in the mTOR binding assay) (converted).

For the compound `CC[C@H]1COCCN1c1cc(CS(C)(=O)=O)nc(-c2ccc3[nH]c(CNC)cc3n2)n1` [Example 1, [(5-{4-[(3S)-3-ethylmorpholin-4-yl]-6-(methanesulfonylmethyl)pyrimidin-2-yl}-1H-pyrrolo[3,2-b]pyridin-2-yl)methyl](methyl)amine], the IC50 reads like this: under setting [1], at most 1.26 nM; under setting [2], 0.794 nM.
As for `CC[C@H]1COCCN1c1cc(C2(S(C)(=O)=O)CCNCC2)cc(-c2ccc3[nH]c(C)cc3n2)n1` [Example 18, (S)-3-ethyl-4-(6-(2-methyl-1H-pyrrolo[3,2-b]pyridin-5-yl)-4-(4-(methylsulfonyl)piperidin-4-yl)pyridin-2-yl)morpholine], the IC50 under setting [2] is 6.31 nM.
Turning to `CC[C@H]1COCCN1c1cc(CS(N)(=O)=O)nc(-c2ccc3[nH]c(CNC)cc3n2)n1` [Example 6, {6-[(3S)-3-ethylmorpholin-4-yl]-2-{2-[(methylamino)methyl]-1H-pyrrolo[3,2-b]pyridin-5-yl}pyrimidin-4-yl}methanesulfonamide], the IC50 under setting [1] was at most 1.26 nM.
With `CC[C@H]1COCCN1c1cc(C2(S(C)(=O)=O)CCOCC2)nc(-c2ccc3[nH]c(CO)cc3n2)n1` [Example 4, (5-{4-[(3S)-3-ethylmorpholin-4-yl]-6-(4-methanesulfonyloxan-4-yl)pyrimidin-2-yl}-1H-pyrrolo[3,2-b]pyridin-2-yl)methanol], the IC50 under setting [1] was at most 1.26 nM.
Still for that read-out and setting: the same measure for `CC[C@H]1COCCN1c1cc(CS(N)(=O)=O)cc(-c2ccc3[nH]c(C)cc3n2)n1` [Example 23, (S)-(2-(3-ethylmorpholino)-6-(2-methyl-1H-pyrrolo[3,2-b]pyridin-5-yl)pyridin-4-yl)methanesulfonamide]: at most 1.26 nM; for `CC[C@H]1COCCN1c1cc(CS(=O)(=O)NC)nc(-c2ccc3[nH]c(CO)cc3n2)n1` [Example 10, 1-{6-[(3S)-3-ethylmorpholin-4-yl]-2-[2-(hydroxymethyl)-1H-pyrrolo[3,2-b]pyridin-5-yl]pyrimidin-4-yl}-N-methylmethanesulfonamide]: at most 0.0794 nM.
As to `CC[C@H]1COCCN1c1cc(CS(C)(=O)=O)nc(-c2ccc3[nH]c(CO)cc3n2)n1` [Example 2, (S)-(5-(4-(3-ethylmorpholino)-6-((methylsulfonyl)methyl)pyrimidin-2-yl)-1H-pyrrolo[3,2-b]pyridin-2-yl)methanol], the IC50 under setting [1] is at most 1.26 nM.
Consider `CC[C@H]1COCC(=O)N1c1cc(CS(C)(=O)=O)cc(-c2ccc3[nH]c(CO)cc3n2)n1` [Example 27], for which, under setting [1], the IC50 was at most 1.26 nM.
As to `CC[C@H]1COCC(=O)N1c1cc(CS(C)(=O)=O)nc(-c2ccc3[nH]c(C)cc3n2)n1` [Example 14, (5S)-5-ethyl-4-[6-(methanesulfonylmethyl)-2-{2-methyl-1H-pyrrolo[3,2-b]pyridin-5-yl}pyrimidin-4-yl]morpholin-3-one], the IC50 was at most 0.2 nM under setting [1] and 0.2 nM under setting [2].
For `CCc1cc2nc(-c3nc(CS(C)(=O)=O)cc(N4C(=O)COC[C@@H]4CC)n3)ccc2[nH]1` [Example 15, (5S)-5-ethyl-4-(2-{2-ethyl-1H-pyrrolo[3,2-b]pyridin-5-yl}-6-(methanesulfonylmethyl)pyrimidin-4-yl)morpholin-3-one], the IC50 runs as follows: under setting [1], at most 0.316 nM; under setting [2], 0.316 nM.
Consider `CC[C@H]1COCC(=O)N1c1cc(C2(S(C)(=O)=O)CCOCC2)cc(-c2ccc3[nH]c(C)cc3n2)n1` [Example 25, (S)-5-ethyl-4-(6-(2-methyl-1H-pyrrolo[3,2-b]pyridin-5-yl)-4-(4-(methylsulfonyl)tetrahydro-2H-pyran-4-yl)pyridin-2-yl)morpholin-3-one], for which the IC50 under setting [1] was at most 1.26 nM.
Take `CC[C@H]1COCCN1c1cc(CS(=O)(=O)N(C)C)nc(-c2ccc3[nH]c(CO)cc3n2)n1` [Example 9, 1-{6-[(3S)-3-ethylmorpholin-4-yl]-2-[2-(hydroxymethyl)-1H-pyrrolo[3,2-b]pyridin-5-yl]pyrimidin-4-yl}-N,N-dimethylmethanesulfonamide]: under setting [1], the IC50 is at most 0.316 nM.
`CC[C@H]1COCC(=O)N1c1cc(CS(C)(=O)=O)cc(-c2ccc3[nH]c(C)cc3n2)n1` [Example 24, (S)-5-ethyl-4-(6-(2-methyl-1H-pyrrolo[3,2-b]pyridin-5-yl)-4-((methylsulfonyl)methyl)pyridin-2-yl)morpholin-3-one]: the IC50 by setting is: under setting [1], at most 1.26 nM; under setting [2], 0.501 nM.
As to `CC[C@H]1COCCN1c1cc(C2(S(C)(=O)=O)CCOCC2)nc(-c2ccc3[nH]c(C)cc3n2)n1` [Example 13, (3S)-3-ethyl-4-[6-(4-methanesulfonyloxan-4-yl)-2-{2-methyl-1H-pyrrolo[3,2-b]pyridin-5-yl}pyrimidin-4-yl]morpholine], the IC50 under setting [1] was at most 1.26 nM.
Consider `CC[C@H]1COCCN1c1cc(CS(=O)(=O)N(C)C)nc(-c2ccc3[nH]c(CNC)cc3n2)n1` [Example 16, 1-{6-[(3S)-3-ethylmorpholin-4-yl]-2-{2-[(methylamino)methyl]-1H-pyrrolo[3,2-b]pyridin-5-yl}pyrimidin-4-yl}-N,N-dimethylmethanesulfonamide], for which the IC50 is, setting by setting: under setting [1], at most 1.26 nM; under setting [2], 0.631 nM.
In the case of `CC[C@H]1COCC(=O)N1c1cc(C2(S(C)(=O)=O)CCOCC2)cc(-c2ccc3[nH]c(CO)cc3n2)n1` [Example 26], the IC50 under setting [1] was at most 0.316 nM.

Values taken from patent US20220306623A1, “PYRIDYL OR PYRIMIDYL MTOR KINASE INHIBITORS” (GLAXOSMITHKLINE INTELLECTUAL PROPERTY DEVELOPMENT LIMITED, priority 2019, published 2022).
